Converted amounts (≈) assume the structure as drawn.
Experiment: Solubility of active compound (I)
Format: physicochemical
Experimental: The active compound (I) has a relatively poor water solubility (about 7 mg/l). As a result of this, difficulties with the oral bioavailability and an increased biological variability of the absorption rate can result.
An alternative process is the amorphization of the active compound. […] Amorphization of the active compound by means of the fusion method is also disadvantageous because of the high melting point of the active compound (about 230° C.), since an undesirably high proportion of breakdown components is formed during the preparation.

- solubility in pharmaceutically acceptable solvents (solvents such as ethanol or acetone): poorly soluble
- solubility (water): ~7 µg/mL (≈ 16.1 µM)
SMILES: O=C(NC[C@H]1CN(c2ccc(N3CCOCC3=O)cc2)C(=O)O1)c1ccc(Cl)s1 [active compound (I), 5-chloro-N-({(5S)-2-oxo-3-[4-(3-oxo-4-morpholinyl)-phenyl]-1,3-oxazolidin-5-yl}-methyl)-2-thiophenecarboxamide]

Source: patent US9415053B2, “Solid, orally administrable pharmaceutical composition” (Bayer Intellectual Property GmbH, priority 2003, dated 2016)
